For assay [1], the target named is EGFR (wild-type) (Homo sapiens, UniProt P00533). The assay is described as follows: MSA (Mobility Shift Assay) kinase activity, EGFR wild type. Type of assay: biochemical. The following applies: read-out: EGFR wt/ IC50/nM. The method, then:
(§1) The MSA (Mobility Shift Assay) method was used to detect the effects of small molecule inhibitors on the kinase activity of EGFR wild type and its mutants (EGFR^wt, EGFR-L858R, EGFR-L858R-T790M-C797S, EGFR-L858R-C797S).
(§2) 10 μL of kinase solution at 2.5 times the final concentration was added to the compound wells and positive control Max wells; 10 μL of 1x kinase buffer was added to the negative control Min wells. The mixture was centrifuged at 1000 rpm for 30 seconds, and the reaction plate was shaken to mix the solution well and then incubated at room temperature for 10 minutes. A mixed solution of ATP and kinase substrate at 5/3 times the final concentration was prepared in 1x kinase buffer. 15 μL of a mixed solution of ATP and substrate at 5/3 times the final concentration was added to initiate the reaction. The 384-well plate was centrifuged at 1000 rpm for 30 seconds, and shaken to mix the solution well and then incubated at room temperature for the corresponding time. 30 μL of stop detection solution was added to stop the kinase reaction, and the mixture was centrifuged at 1000 rpm for 30 seconds, and then to mixed well by shaking. The conversion rate was read using Caliper EZ Reader.
(§3) wherein: Conversion %_sample is the conversion rate reading of the sample; Conversion %_min is the mean of the negative control wells, representing the conversion rate reading of the wells without enzyme activity; Conversion %_max is the mean of the positive control wells, representing the conversion rate reading of the wells without compound inhibition.
(§4) The log (inhibitor) vs. response —Variable slope of the analysis software GraphPad Prism 5 was used to fit the dose-effect curve, where the log value of the concentration was used as the X-axis and the percentage inhibition rate was used as the Y-axis, to obtain the IC50 value of each compound on the enzyme activity.
(§5) The calculation formula is Y=Bottom+(Top-Bottom)/(1+10^((Log IC50−X)*Hill Slope))

Assay [2] addresses EGFR (L858R) (Homo sapiens, UniProt P00533, L858R). The assay is described as follows: MSA (Mobility Shift Assay) kinase activity, EGFR-L858R. The format is biochemical. The method, then:
as §1, §2, §3, §4, §5

Assay [3] has as its target EGFR (L858R/C797S) (Homo sapiens, UniProt P00533, C797S/L858R). The assay is described as follows: MSA (Mobility Shift Assay) kinase activity, EGFR-L858R-C797S. The format is biochemical. The method, then: as §1, §2, §3, §4, §5
Assay [4] has as its target EGFR (L858R/T790M/C797S) (Homo sapiens, UniProt P00533, C797S/L858R/T790M). Description: MSA (Mobility Shift Assay) kinase activity, EGFR-L858R-T790M-C797S. Type of assay: biochemical. The method, then:
as §1, §2, §3, §4, §5

In assay [5] the target is T1, Ba/F3-FL-EGFR (Homo sapiens, UniProt P00533).
T1 construct: FL read as full length
The assay is described as follows: CellTiter-Glo proliferation, Ba/F3-FL-EGFR. Type of assay: cell-based. The following applies: 72 hours, read-out: Ba/F3-FL-EGFR IC50/nM. The method, then: (§6) Promega CellTiter-Glo reagent was used to detect the effects of small molecule inhibitors on the proliferation of five Ba/F3 cell lines (Ba/F3-FL-EGFR, Ba/F3-FL-EGFR-L858R, Ba/F3-FL-EGFR-L858R-T790M-C797S, Ba/F3-TEL-EGFR-L858R-C797S and Ba/F3-FL-EGFR-del19-C797S).
(§7) The cell lines were cultured in an incubator at 37° C. and 5% CO2. Cells were passaged regularly and cells in the logarithmic phase were used for plating. 95 μL of cell suspension was added to each well of the cell plate, and culture medium without cells (containing 0.1% DMSO) was added to the Min control wells. Substance addition for compound detection cell plate: 5 μL of 20× compound working solution was added to the cell culture plate as shown in the table below. 50 μL of DMSO-cell culture medium mixture was added to the Max control, with the final DMSO concentration of 0.1%. 5 μL of DMSO-cell culture medium mixture was added to the Max control. The final DMSO concentration was 0.1%.
(§8) The compounds to be tested were added as per the table below
(§9) Cell viability was detected by CellTiter-Glo luminescence assay. Data analysis:
(§10) The cell proliferation inhibition rate (Inhibition Rate) data was processed using the following formula: […]
(§11) wherein: RLUDrug represents the relative luminescence unit of the cells with the addition of drug, RLUMin represents the luminescence unit of the culture medium, and RLUMax represents the relative luminescence unit of the cells with the addition of DMSO.
(§12) The inhibition rates corresponding to different concentrations of compounds were calculated in EXCEL, and then the inhibition rate curve was plotted using GraphPad Prism software and related parameters including the maximum and minimum inhibition rates of cells and IC50 values were calculated.
Background: Cellular ATP, detected with luciferase, serves as a proxy for viable cell number.

Assay [6] concerns the target Ba/F3-FL-EGFR-L858R (Homo sapiens, UniProt P00533, L858R, cells depend on it). Description: CellTiter-Glo proliferation, Ba/F3-FL-EGFR-L858R. The following applies: 72 hours, read-out: Ba/F3-FL-EGFR-L858R IC50/nM. Type of assay: cell-based. The method, then:
as §6, §7, §8, §9, §10, §11, §12

Assay [7] concerns the target T2, Ba/F3-TEL-EGFR-L858R-C797S (Homo sapiens, UniProt P00533, C797S/L858R, cells depend on it).
T2 construct: fused on or other part: N-terminal TEL (ETV6) oligomerising part fused to the EGFR intracellular/kinase part; P41212 (Transcription factor ETV6)
Description: CellTiter-Glo proliferation, Ba/F3-TEL-EGFR-L858R-C797S. The format is cell-based. The settings on record: 72 hours, read-out: Ba/F3-TEL-EGFR-L858R-C797S IC50/nM. The method, then: as §6, §7, §8, §9, §10, §11, §12

For assay [8], the target named is Ba/F3-FL-EGFR-L858R-T790M-C797S (Homo sapiens, UniProt P00533, T790M/C797S/L858R, cells depend on it). The assay is described as follows: CellTiter-Glo proliferation, Ba/F3-FL-EGFR-L858R-T790M-C797S. Type of assay: cell-based. The settings on record: 72 hours, read-out: Ba/F3-FL-EGFR-L858R-T790M-C797S IC50/nM. The method, then:
as §6, §7, §8, §9, §10, §11, §12

Chain of EGFR (L858R/C797S) (P00533 25-1210 C797S/L858R): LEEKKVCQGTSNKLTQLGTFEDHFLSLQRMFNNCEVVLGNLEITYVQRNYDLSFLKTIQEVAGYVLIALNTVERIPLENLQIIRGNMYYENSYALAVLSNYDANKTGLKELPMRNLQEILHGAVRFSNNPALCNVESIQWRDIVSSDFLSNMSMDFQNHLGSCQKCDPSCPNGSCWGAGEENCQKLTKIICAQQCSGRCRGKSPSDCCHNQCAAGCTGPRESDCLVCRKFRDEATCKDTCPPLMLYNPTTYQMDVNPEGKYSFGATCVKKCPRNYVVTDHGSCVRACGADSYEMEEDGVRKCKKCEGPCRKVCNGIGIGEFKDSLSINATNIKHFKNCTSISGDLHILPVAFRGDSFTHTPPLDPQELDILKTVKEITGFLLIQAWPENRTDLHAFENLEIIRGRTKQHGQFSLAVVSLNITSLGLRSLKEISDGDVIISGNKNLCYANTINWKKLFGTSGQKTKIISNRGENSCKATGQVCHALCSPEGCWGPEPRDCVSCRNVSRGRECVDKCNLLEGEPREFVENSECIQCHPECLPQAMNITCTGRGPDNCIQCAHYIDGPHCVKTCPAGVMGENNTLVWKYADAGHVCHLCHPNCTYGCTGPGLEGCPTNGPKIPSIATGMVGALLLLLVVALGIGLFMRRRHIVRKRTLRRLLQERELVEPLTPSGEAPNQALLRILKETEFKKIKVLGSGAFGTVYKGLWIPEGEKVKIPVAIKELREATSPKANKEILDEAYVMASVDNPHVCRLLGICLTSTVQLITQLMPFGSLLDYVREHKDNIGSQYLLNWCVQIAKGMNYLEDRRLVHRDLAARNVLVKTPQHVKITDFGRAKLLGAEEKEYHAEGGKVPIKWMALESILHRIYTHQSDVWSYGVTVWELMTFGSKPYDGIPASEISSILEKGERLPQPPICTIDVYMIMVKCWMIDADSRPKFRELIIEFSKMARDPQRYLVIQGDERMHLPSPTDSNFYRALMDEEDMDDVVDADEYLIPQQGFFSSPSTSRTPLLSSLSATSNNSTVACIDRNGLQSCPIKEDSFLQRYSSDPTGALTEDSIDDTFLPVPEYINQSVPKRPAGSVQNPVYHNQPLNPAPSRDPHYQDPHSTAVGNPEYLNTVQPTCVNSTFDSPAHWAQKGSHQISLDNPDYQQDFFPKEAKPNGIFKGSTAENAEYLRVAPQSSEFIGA
Chain of EGFR (L858R) (P00533 25-1210 L858R): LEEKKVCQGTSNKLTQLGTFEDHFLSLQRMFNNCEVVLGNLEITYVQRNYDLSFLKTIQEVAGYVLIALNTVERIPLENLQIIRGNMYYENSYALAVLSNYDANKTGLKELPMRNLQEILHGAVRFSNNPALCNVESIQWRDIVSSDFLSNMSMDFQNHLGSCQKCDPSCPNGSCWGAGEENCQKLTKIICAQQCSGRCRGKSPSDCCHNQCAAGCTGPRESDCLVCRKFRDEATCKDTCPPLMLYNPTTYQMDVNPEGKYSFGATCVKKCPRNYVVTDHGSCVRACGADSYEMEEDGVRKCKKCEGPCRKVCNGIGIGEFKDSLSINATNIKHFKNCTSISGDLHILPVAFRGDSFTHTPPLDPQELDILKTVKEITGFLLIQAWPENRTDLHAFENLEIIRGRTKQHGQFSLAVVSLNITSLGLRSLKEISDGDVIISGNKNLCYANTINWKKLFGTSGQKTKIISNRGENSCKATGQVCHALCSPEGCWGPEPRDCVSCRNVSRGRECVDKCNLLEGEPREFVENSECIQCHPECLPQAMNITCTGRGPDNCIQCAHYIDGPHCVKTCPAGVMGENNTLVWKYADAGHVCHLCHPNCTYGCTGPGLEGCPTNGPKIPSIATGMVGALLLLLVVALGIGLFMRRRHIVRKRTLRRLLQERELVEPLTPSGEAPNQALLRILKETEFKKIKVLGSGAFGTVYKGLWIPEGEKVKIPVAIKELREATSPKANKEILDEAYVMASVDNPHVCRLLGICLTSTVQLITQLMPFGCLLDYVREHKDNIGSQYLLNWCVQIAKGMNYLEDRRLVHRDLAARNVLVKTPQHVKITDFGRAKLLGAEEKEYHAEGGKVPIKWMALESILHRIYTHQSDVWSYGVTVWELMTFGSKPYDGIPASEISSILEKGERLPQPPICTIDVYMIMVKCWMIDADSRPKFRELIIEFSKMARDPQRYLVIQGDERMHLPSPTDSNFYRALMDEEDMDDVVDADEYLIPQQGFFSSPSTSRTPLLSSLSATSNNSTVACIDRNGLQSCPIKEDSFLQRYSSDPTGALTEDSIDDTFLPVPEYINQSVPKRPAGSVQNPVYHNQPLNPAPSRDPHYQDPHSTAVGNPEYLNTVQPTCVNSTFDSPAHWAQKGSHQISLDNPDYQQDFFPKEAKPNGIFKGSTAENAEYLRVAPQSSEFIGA
Chain of EGFR (wild-type) (P00533 25-1210): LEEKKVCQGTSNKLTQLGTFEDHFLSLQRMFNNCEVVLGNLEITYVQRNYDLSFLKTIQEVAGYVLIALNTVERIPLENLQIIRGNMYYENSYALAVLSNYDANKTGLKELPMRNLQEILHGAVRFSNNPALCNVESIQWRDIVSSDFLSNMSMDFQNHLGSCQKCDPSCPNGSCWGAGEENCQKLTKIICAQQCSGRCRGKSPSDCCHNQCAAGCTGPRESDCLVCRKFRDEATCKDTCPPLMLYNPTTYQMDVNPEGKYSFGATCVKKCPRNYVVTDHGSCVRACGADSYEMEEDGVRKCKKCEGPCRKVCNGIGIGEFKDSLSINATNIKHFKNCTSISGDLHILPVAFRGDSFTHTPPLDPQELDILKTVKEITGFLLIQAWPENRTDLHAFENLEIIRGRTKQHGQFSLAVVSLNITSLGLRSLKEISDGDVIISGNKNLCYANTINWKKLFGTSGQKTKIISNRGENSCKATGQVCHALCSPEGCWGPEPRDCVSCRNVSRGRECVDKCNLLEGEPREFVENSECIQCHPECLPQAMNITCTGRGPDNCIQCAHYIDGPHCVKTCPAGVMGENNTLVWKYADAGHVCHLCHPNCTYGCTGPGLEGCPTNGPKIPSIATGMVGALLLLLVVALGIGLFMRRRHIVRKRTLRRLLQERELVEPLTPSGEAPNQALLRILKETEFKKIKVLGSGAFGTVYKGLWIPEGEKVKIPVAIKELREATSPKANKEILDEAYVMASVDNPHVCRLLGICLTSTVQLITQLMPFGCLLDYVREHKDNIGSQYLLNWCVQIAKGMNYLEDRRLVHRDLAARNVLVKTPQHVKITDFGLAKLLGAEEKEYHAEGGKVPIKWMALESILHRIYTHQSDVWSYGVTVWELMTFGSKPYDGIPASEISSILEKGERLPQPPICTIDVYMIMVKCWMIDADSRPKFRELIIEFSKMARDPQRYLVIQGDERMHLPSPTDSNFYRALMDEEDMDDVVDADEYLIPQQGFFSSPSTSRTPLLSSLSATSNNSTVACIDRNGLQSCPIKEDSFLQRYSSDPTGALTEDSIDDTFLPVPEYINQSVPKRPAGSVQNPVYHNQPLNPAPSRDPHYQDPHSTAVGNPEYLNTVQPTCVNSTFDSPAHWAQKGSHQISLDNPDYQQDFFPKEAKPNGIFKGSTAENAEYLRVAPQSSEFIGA
Chain of EGFR (L858R/T790M/C797S) (P00533 25-1210 T790M/C797S/L858R): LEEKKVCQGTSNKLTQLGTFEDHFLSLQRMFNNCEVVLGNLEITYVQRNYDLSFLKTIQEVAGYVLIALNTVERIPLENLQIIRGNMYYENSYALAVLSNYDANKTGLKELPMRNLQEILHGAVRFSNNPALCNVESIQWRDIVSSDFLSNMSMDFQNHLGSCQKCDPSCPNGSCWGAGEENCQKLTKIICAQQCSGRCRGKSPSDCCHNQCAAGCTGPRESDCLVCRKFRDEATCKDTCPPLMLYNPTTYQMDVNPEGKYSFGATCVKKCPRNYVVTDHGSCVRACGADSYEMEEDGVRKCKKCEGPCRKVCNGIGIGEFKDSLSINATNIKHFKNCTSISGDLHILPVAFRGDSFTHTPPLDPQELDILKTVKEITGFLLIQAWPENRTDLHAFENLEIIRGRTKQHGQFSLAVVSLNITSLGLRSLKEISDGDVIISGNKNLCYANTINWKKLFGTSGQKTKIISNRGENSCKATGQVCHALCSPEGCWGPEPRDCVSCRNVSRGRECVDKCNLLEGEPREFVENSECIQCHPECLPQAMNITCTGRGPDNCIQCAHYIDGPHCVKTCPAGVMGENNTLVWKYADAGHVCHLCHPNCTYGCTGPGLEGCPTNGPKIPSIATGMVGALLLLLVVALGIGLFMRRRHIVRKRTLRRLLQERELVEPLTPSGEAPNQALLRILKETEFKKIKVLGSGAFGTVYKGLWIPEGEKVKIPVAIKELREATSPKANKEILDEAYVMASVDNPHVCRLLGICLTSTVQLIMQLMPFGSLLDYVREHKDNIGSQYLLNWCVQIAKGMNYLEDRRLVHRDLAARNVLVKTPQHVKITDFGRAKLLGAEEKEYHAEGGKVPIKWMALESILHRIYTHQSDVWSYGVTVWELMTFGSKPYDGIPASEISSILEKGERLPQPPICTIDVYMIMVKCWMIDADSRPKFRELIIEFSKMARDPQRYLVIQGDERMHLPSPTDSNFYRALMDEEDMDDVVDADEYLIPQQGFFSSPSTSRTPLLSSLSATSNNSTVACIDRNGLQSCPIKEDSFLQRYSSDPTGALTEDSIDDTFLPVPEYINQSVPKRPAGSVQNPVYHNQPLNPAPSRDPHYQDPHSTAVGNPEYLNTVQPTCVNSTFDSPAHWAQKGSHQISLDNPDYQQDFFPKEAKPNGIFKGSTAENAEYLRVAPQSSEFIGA

Consider `CC(C)c1ccc(N2CC(CC(N)=O)C2)c2cnc(Nc3ccnc(-c4cnn(S(=O)(=O)C5CC5)c4)n3)cc12` [Compound H4], for which the IC50 worked out at 6.1 nM in assay [1], 2.1 nM in assay [2], 2.9 nM in assay [3] and 0.3 nM in assay [4]. Further, the GI50 in assay [5] came out at 628 nM; in assay [6], 46 nM; in assay [7] it was 39 nM; in assay [8], 146 nM.
For the molecule `CC(C)n1c(=O)cc(N2CC(CS(C)(=O)=O)C2)c2cnc(Nc3ccnc(-c4cnn(S(=O)(=O)C5CC5)c4)n3)cc21` [Compound H5], the IC50 in assay [1] was determined as 10.2 nM; in assay [2] it was 4.6 nM; in assay [3], 1.9 nM; in assay [4], 0.43 nM.
Taken in the same sequence, the figures for `CC(C)c1ccc(N2CC3(CC(S(C)(=O)=O)C3)C2)c2cnc(Nc3ccnc(N4CCC(O)C(F)C4)n3)cc12` (stereo not drawn) [Compound P2] were greater than 100 nM, 43 nM, greater than 100 nM and 6.7 nM.
For the molecule `CC(C)c1ccc(N2CC3(CC(S(C)(=O)=O)C3)C2)c2cnc(Nc3ccnc(-c4cnn(S(=O)(=O)C5CC5)c4)n3)cc12` [Compound P3], the IC50 in assay [1] is 17.9 nM; in assay [2], 5.8 nM; in assay [3], 10.6 nM; in assay [4] it was 0.71 nM. Further, the GI50 in assay [5] is 889 nM; in assay [6], 55 nM; in assay [7], 43 nM; in assay [8], 248 nM.
Consider `CC(C)c1ccc(N2CC3(CC(S(C)(=O)=O)C3)C2)c2cnc(Nc3ccnc(N4CCC(O)CC4)n3)cc12` [Compound P4], for which the IC50 was greater than 100 nM in assay [1], 43.3 nM in assay [2], greater than 100 nM in assay [3] and 4.6 nM in assay [4].
As for `CC(C)c1cc(C(F)(F)F)c(N2CC3(CC(CS(C)(=O)=O)C3)C2)c2cnc(Nc3ccnc(N4CCC(O)C(F)C4)n3)cc12` (stereo not drawn) [Compound P5], the IC50 in assay [1] is greater than 100 nM; in assay [2], greater than 100 nM; in assay [3], greater than 100 nM; in assay [4] it was 7.1 nM.
Turning to `CC(C)c1ccc(N2CC(NS(C)(=O)=O)C2)c2cnc(Nc3ccnc(N4CCC(O)CC4)c3)nc12` [Compound P6], the IC50 in assay [1] was greater than 100 nM; in assay [2] it was 45.2 nM; in assay [3], 89.8 nM; in assay [4] it was 6.1 nM.
For `CC(C)c1ccc(N2CC(CS(C)(=O)=O)C2(C)C)c2cnc(Nc3ccnc(N4CCC(O)C(F)C4)n3)cc12` (stereo not drawn) [Compound P8], the IC50 in assay [1] is greater than 100 nM; in assay [2] it was 67.8 nM; in assay [3], 83.3 nM; in assay [4], 0.97 nM.
Taken in the same sequence, the figures for `CC(C)c1ccc(N2CC(CP(C)(C)=O)C2)c2cnc(Nc3ccnc(N4CCC(O)C(F)C4)n3)cc12` (stereo not drawn) [Compound P9] were greater than 100 nM, greater than 100 nM, greater than 100 nM and 3.4 nM.
As to `CC(C)c1ccc(N2CC(NC(=O)N(C)C)C2)c2cnc(Nc3ccnc(N4CCC(O)C(F)C4)n3)cc12` (stereo not drawn) [Compound P10], the IC50 in assay [1] was greater than 100 nM; in assay [2] it was 43.2 nM; in assay [3], 41 nM; in assay [4], 0.56 nM.
Taken in the same sequence, the figures for `CC(C)c1ccc(N2CC3(C2)CN(S(C)(=O)=O)C3)c2cnc(Nc3ccnc(N4CCC(O)C(F)C4)n3)cc12` (stereo not drawn) [Compound P11] were greater than 100 nM, greater than 100 nM, greater than 100 nM and 4.8 nM.
Taken in the same sequence, the figures for `CC(C)c1ccc(N2CC(c3cccnc3)C2)c2cnc(Nc3ccnc(N4CCC(O)C(F)C4)n3)cc12` (stereo not drawn) [Compound P12] were greater than 100 nM, greater than 100 nM, greater than 100 nM and 1.9 nM.
On the same counts, the results for `CC(C)n1c(=O)cc(N2CC(CS(C)(=O)=O)C2)c2cnc(Nc3ccnc(N4CCC(O)CC4)n3)cc21` [Compound P13] are greater than 100 nM, 31.2 nM, 34.5 nM and 1 nM.
On to `CC(C)n1c(=O)cc(N2CC(CS(C)(=O)=O)C2)c2cnc(Nc3ccnc(N4CCC(O)C(F)C4)n3)cc21` (stereo not drawn) [Compound P14], for which the IC50 in assay [1] is 80.7 nM; in assay [2], 9.5 nM; in assay [3] it was 11.8 nM; in assay [4] it was 0.12 nM.
On the same counts, the results for `CNC(=O)CN1CC(c2ccc(C(C)C)c3cc(Nc4ccnc(N5CCC(O)C(F)C5)n4)ncc23)C1` (stereo not drawn) [Compound P15] are greater than 100 nM, 98.9 nM, greater than 100 nM and 1.7 nM.
For the molecule `CC(C)c1ccc(N2CC(C[S+](C)[O-])C2)c2cnc(Nc3ccnc(N4CCC(O)C(F)C4)n3)cc12` (stereo not drawn) [Compound P17], the IC50 in assay [1] was greater than 100 nM; in assay [2], 73.4 nM; in assay [3], greater than 100 nM; in assay [4], 1.6 nM.
For `CC(C)n1c(=O)nc(N2CC(CS(C)(=O)=O)C2)c2cnc(Nc3ccnc(N4CCC(O)C(F)C4)n3)cc21` (stereo not drawn) [Compound P19], the IC50 in assay [1] was greater than 100 nM; in assay [2] it was greater than 100 nM; in assay [3], greater than 100 nM; in assay [4], 3.4 nM.
Take `CNC(=O)CC1CN(c2ccc(C(C)C)c3cc(Nc4ccnc(N5CCC(O)C(F)C5)n4)ncc23)C1` (stereo not drawn) [Compound P20]: the IC50 in assay [1] was found to be 90.9 nM; in assay [2], 20.5 nM; in assay [3], 43.1 nM; in assay [4] it was 0.42 nM.
`CC(C)c1ccc(N2CC(c3ccc[nH]c3=O)C2)c2cnc(Nc3ccnc(N4CCC(O)C(F)C4)n3)cc12` (stereo not drawn) [Compound P22]: the IC50 is greater than 100 nM in assay [1], greater than 100 nM in assay [2], greater than 100 nM in assay [3] and 3.2 nM in assay [4].
Consider `CC(C)c1ccc(N2CC(NS(=O)(=O)C3CC3)C2)c2cnc(Nc3ccnc(N4CCC(O)C(F)C4)n3)cc12` (stereo not drawn) [Compound P23], for which the IC50 came out at 33.8 nM in assay [1], 7.8 nM in assay [2], 8.2 nM in assay [3] and 0.11 nM in assay [4].
On the same counts, the results for `CC(C)c1ccc(N2C[C@@H](NS(C)(=O)=O)[C@@H]2C)c2cnc(Nc3ccnc(N4CCC(O)C(F)C4)n3)cc12` (stereo partly drawn) [Compound P26] are greater than 100 nM, greater than 100 nM, greater than 100 nM and 30.9 nM.
On the same counts, the results for `CC(C)c1ccc(N2CC(NS(=O)(=O)c3cccnc3)C2)c2cnc(Nc3ccnc(N4CCC(O)C(F)C4)n3)cc12` (stereo not drawn) [Compound P28] are 64 nM, 13 nM, 27 nM and 0.34 nM.

The values above are taken from patent publication US20250092017A1, “2-PIPERIDYL OR 2-PYRAZOLYL SUBSTITUTED PYRIMIDINE COMPOUND SERVING AS EGFR INHIBITOR” (SUZHOU PUHE BIOPHARMA CO., LTD., priority 2022, published 2025).
